Reference: patent publication US20260256792A1, “TREATMENT OF CHRONIC SPONTANEOUS URTICARIA BY ADMINISTERING (R)-2-[3-[4-AMINO-3-(2-FLUORO-4-PHENOXY-PHENYL)PYRAZOLO[3,4-D]PYRIMIDIN-1-YL]PIPERIDINE-1-CARBONYL]-4-METHYL-4-[4-(OXETAN-3-YL)PIPERAZIN-1-YL]PENT-2-ENENITRILE” (priority 2023, published 2026)

Test system: moderate-to-severe chronic spontaneous urticaria (CSU)
Test: Phase 2 CSU study: urticaria activity score over 7 days (UAS7)
Type: in vivo, human
Set-up: key to UAS7 Median / UAS7 Change from baseline Median / UAS7 change from baseline, Q1 / UAS7 change from baseline, Q3 / UAS7 change from baseline, Max / UAS7 Change from baseline LS Mean (SE): UAS7 points; daily UAS score ranges 0–6 points/day, over 7 days
Source text: The study comprises a 12 week, randomized, double-blind, placebo-controlled, multi-center, dose-ranging efficacy and safety phase, followed by a 40 week open label extension (OLE) phase (see FIG. 1). The study consists of three phases and an optional OLE phase. […] Clinically, CSU is characterized by the spontaneous and recurrent appearance of pruritic hives. The proposed primary endpoints were the UAS7 at Week 12 in EU and EU reference countries and the ISS7 in the US. Regardless of where a participant was from, all assessments were the same. The UAS7 score is a composite score containing both the HSS7 and the ISS7. This allowed a global assessment of the two key components of urticaria: hives and itch. […] The UAS is a validated PRO measure. […] The daily UAS scores range from 0 to 6 point/day. […] Patients were to complete the UAS using the e-diary. […] The following secondary endpoints were to be analyzed using the same approach as for the primary endpoint: • Change from baseline in UAS7 at Week 4 • Change from baseline in UAS7 at Week 12 (for US and US reference countries) • Change from baseline in ISS7 at Week 12 (except US and US reference countries) • Change from baseline in HSS7 at Week 12 The following responder secondary endpoints were to be analyzed using the Cochran-Mantel-Haenszel test adjusted by region: • Proportion of participants with UAS7<6 at Week 12 • Proportion of participants with UAS7=0 at Week 12 Participants who received selected prohibited medications and/or rescue medications were to be considered as non-responders for time points after the medication usage. For other participants, all available data including those collected during the off-treatment period were to be used to determine the responder/non-responder status. Missing data were to be considered as non-responders.

[1] = Week 11, 400 mg TID, Prior Omalizumab Use
[2] = Week 11, 400 mg TID, omalizumab-naive participants
[3] = Week 12, 400 mg BID, ITT population
[4] = Week 12, 400 mg BID, Omalizumab-Naïve
[5] = Week 12, 400 mg BID, Prior Omalizumab Use
[6] = Week 12, 400 mg BID, omalizumab-naive participants
[7] = Week 12, 400 mg QPM, ITT population
[8] = Week 12, 400 mg QPM, Omalizumab-Naïve
[9] = Week 12, 400 mg QPM, Prior Omalizumab Use
[10] = Week 12, 400 mg QPM, omalizumab-naive participants
[11] = Week 12, 400 mg TID, ITT population
[12] = Week 12, 400 mg TID, Omalizumab-Naïve
[13] = Week 12, 400 mg TID, Prior Omalizumab Use
[14] = Week 12, 400 mg TID, omalizumab-naive participants

SMILES: CC(C)(C=C(C#N)C(=O)N1CCC[C@@H](n2nc(-c3ccc(Oc4ccccc4)cc3F)c3c(N)ncnc32)C1)N1CCN(C2COC2)CC1 [rilzabrutinib, (R)-2-[3-[4-amino-3-(2-fluoro-4-phenoxy-phenyl)pyrazolo[3,4-d]pyrimidin-1-yl]piperidine-1-carbonyl]-4-methyl-4-[4-(oxetan-3-yl)piperazin-1-yl]pent-2-enenitrile]
- UAS7 Change from baseline Mean (SD) [1]: −25.94 (15.41)
- UAS7 Change from baseline Median [1]: −26.33
- UAS7 Mean (SD) [1]: 7.08 (11.77)
- UAS7 Median [1]: 1.75
- UAS7 Percent change from baseline Mean (SD) [1]: −76.09 (31.89) %
- UAS7 Percent change from baseline Median [1]: −92.11%
- Non-responder, UAS7 reduction from baseline of 10 points or more [2]: 12 (34.3) n (%)
- OR for rilzabrutinib vs. placebo, UAS7 reduction of 10 points or more [2]: 1.839
- RRD (%) for rilzabrutinib vs. placebo, UAS7 reduction of 10 points or more [2]: 13.6 %
- Responder, UAS7 reduction from baseline of 10 points or more [2]: 23 (65.7) n (%)
- Non-responder, UAS7 reduction from baseline of 10 points or more [3]: 23 (56.1) n (%)
- OR for rilzabrutinib vs. placebo, UAS7 reduction of 10 points or more [3]: 1.041
- RRD (%) for rilzabrutinib vs. placebo, UAS7 reduction of 10 points or more [3]: 1.0 %
- Responder, UAS7 reduction from baseline of 10 points or more [3]: 18 (43.9) n (%)
- UAS7 Change from baseline Mean (SD) [4]: −14.49 (12.08)
- UAS7 Change from baseline Median [4]: −12.80
- UAS7 Mean (SD) [4]: 15.61 (13.91)
- UAS7 Median [4]: 14.00
- UAS7 Percent change from baseline Mean (SD) [4]: −50.20 (37.89) %
- UAS7 Percent change from baseline Median [4]: −47.76%
- UAS7 Change from baseline Mean (SD) [5]: −26.00 (18.38)
- UAS7 Change from baseline Median [5]: −31.00
- UAS7 Mean (SD) [5]: 8.75 (17.50)
- UAS7 Median [5]: 0.00
- UAS7 Percent change from baseline Mean (SD) [5]: −75.00 (50.00) %
- UAS7 Percent change from baseline Median [5]: −100.00%
- Non-responder, UAS7 reduction from baseline of 10 points or more [6]: 20 (57.1) n (%)
- OR for rilzabrutinib vs. placebo, UAS7 reduction of 10 points or more [6]: 1.069
- RRD (%) for rilzabrutinib vs. placebo, UAS7 reduction of 10 points or more [6]: 1.7 %
- Responder, UAS7 reduction from baseline of 10 points or more [6]: 15 (42.9) n (%)
- Non-responder, UAS7 reduction from baseline of 10 points or more [7]: 24 (63.2) n (%)
- OR for rilzabrutinib vs. placebo, UAS7 reduction of 10 points or more [7]: 0.841
- RRD (%) for rilzabrutinib vs. placebo, UAS7 reduction of 10 points or more [7]: −4.0 %
- Responder, UAS7 reduction from baseline of 10 points or more [7]: 14 (36.8) n (%)
- UAS7 Change from baseline Mean (SD) [8]: −10.57 (9.36)
- UAS7 Change from baseline Median [8]: −8.70
- UAS7 Median [8]: 22.87
- UAS7 Percent change from baseline Mean (SD) [8]: −33.23 (28.33) %
- UAS7 Percent change from baseline Median [8]: −29.67%
- UAS7 Change from baseline Mean (SD) [9]: −25.00 (NC)
- UAS7 Change from baseline Median [9]: −25.00
- UAS7 Mean (SD) [9]: 16.00 (NC)
- UAS7 Median [9]: 16.00
- UAS7 Percent change from baseline Mean (SD) [9]: −60.98 (NC) %
- UAS7 Percent change from baseline Median [9]: −60.98%
- Non-responder, UAS7 reduction from baseline of 10 points or more [10]: 24 (64.9) n (%)
- OR for rilzabrutinib vs. placebo, UAS7 reduction of 10 points or more [10]: 0.780
- RRD (%) for rilzabrutinib vs. placebo, UAS7 reduction of 10 points or more [10]: −5.8 %
- Responder, UAS7 reduction from baseline of 10 points or more [10]: 13 (35.1) n (%)
- Non-responder, UAS7 reduction from baseline of 10 points or more [11]: 18 (43.9) n (%)
- OR for rilzabrutinib vs. placebo, UAS7 reduction of 10 points or more [11]: 1.638
- RRD (%) for rilzabrutinib vs. placebo, UAS7 reduction of 10 points or more [11]: 11.7 %
- Responder, UAS7 reduction from baseline of 10 points or more [11]: 23 (56.1) n (%)
- UAS7 Change from baseline Mean (SD) [12]: −19.04 (11.40)
- UAS7 Change from baseline Median [12]: −18.92
- UAS7 Mean (SD) [12]: 11.00 (9.90)
- UAS7 Percent change from baseline Mean (SD) [12]: −62.32 (31.89) %
- UAS7 Percent change from baseline Median [12]: −60.00%
- UAS7 Change from baseline Mean (SD) [13]: −27.40 (16.76)
- UAS7 Change from baseline Median [13]: −34.00
- UAS7 Mean (SD) [13]: 7.80 (13.01)
- UAS7 Median [13]: 0.00
- UAS7 Percent change from baseline Mean (SD) [13]: −74.46 (35.38) %
- UAS7 Percent change from baseline Median [13]: −100.00%
- Non-responder, UAS7 reduction from baseline of 10 points or more [14]: 15 (42.9) n (%)
- OR for rilzabrutinib vs. placebo, UAS7 reduction of 10 points or more [14]: 1.805
- Responder, UAS7 reduction from baseline of 10 points or more [14]: 20 (57.1) n (%)
